US20070249526A1, “PROCESS FOR THE PREPARATION OF CYCLIC PEPTIDES” (priority 2003, published 2007)

Key:
human C5a receptor [1] = target: T1, human C5a receptor (Homo sapiens, UniProt P21730); conditions: literature refs 6-9; cited from earlier work
T1 construct: host or cells: human cells; neutrophils, macrophages, polymorphonuclear leukocytes
T1 sequence (P21730 1-350): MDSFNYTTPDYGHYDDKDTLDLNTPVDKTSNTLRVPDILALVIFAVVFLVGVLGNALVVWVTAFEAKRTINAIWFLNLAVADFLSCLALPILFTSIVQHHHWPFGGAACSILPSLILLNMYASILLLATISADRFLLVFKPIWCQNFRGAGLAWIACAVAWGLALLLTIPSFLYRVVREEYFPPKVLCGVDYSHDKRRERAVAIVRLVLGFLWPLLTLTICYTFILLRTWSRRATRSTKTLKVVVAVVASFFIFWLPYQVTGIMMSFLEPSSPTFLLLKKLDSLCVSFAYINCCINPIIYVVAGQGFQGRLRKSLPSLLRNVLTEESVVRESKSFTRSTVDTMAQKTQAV

human C5a receptor [2] = target: T1, human C5a receptor; conditions: literature refs 6-9; cited from earlier work; remark: listed apart in the source
[3] = tested on: rat models of human disease; conditions: literature refs 10-15; cited from earlier work
physchem = format: physicochemical
Description: The crude product of Example 15 was purified by prep HPLC using 0.5% AcOH in water and 0.5% AcOH in 90% ACN in water as buffers. The crude product was purified in a gradient program and major fraction was collected. After lyophilization, it gave a white powder which failed the solubility test at 10 mg/ml. ^19F NMR confirmed that there were still two TFA salts in the formula (FIG. 1). This product was repurified on the prepHPLC once more, the major fraction was collected and lyophilized to give 3D53. 12 mg of this product dissolved in 1 ml water gave a clear solution.

solubility (physchem): < 10000 µg/mL
amount dissolved giving a clear solution (physchem; in 1 ml water, product repurified by prepHPLC, no TFA salt by 19F NMR): ≥ 12 mg
Structure (SMILES): CC(=O)N[C@@H](Cc1ccccc1)C(=O)N[C@H]1CCCNC(=O)[C@H](CCCNC(=N)N)NC(=O)C(Cc2c[nH]c3ccccc23)NC(=O)[C@@H](CC2CCCCC2)NC(=O)C2CCCN2C1=O (stereo partly drawn) [Compound 1, Ac-Phe[Orn-Pro-D-Cha-Trp-Arg]]
inhibition in vitro of C5a binding to human cells (human C5a receptor [1]): potent inhibition
inhibition in vitro of C5a-mediated activation of neutrophils and macrophages, chemotaxis, and cytokine release (human C5a receptor [2]): potent inhibition
inhibition in vivo in rat models of human disease [3]: potent inhibition
